Reference: US20260109674A1, “ALLOSTERIC MODULATION OF MUSCARINIC ACETYLCHOLINE RECEPTOR EFFICACY” (The University of Toledo, priority 2022, published 2026)
Where a name gives a salt, the structure may show the parent alone. Read-outs that look alike come from different tables or passages of the source. Marks after values point to notes of the source that are not given here.

Assays:
[1] = target: T1, M1 muscarinic receptors expressed in CHO cells (Homo sapiens, UniProt P11229); assay: [3H]-arachidonic acid release screen with and without ACh and modulator; assay type: cell-based; conditions: for Ratio of response of ACh with modulator to response of ACh alone, 0.1 μM ACh / Ratio of response of ACh with modulator to response of ACh alone, 100 μM ACh / Stimulation of [3H]AA release, No ACh (fraction of stimulation above the control): 10 μM modulator, Table 1; for Modulation of ACh activity (in words): [3H]AA release; for Modulation of ACh activity (in words) / Intrinsic agonist activity (in words): modulator 10 μM; for Intrinsic agonist activity (in words): without ACh
T1 construct: expressed in transfected cells; host or cells: CHO (CHO-hM1, stably transfected)
T1 sequence (P11229 1-460): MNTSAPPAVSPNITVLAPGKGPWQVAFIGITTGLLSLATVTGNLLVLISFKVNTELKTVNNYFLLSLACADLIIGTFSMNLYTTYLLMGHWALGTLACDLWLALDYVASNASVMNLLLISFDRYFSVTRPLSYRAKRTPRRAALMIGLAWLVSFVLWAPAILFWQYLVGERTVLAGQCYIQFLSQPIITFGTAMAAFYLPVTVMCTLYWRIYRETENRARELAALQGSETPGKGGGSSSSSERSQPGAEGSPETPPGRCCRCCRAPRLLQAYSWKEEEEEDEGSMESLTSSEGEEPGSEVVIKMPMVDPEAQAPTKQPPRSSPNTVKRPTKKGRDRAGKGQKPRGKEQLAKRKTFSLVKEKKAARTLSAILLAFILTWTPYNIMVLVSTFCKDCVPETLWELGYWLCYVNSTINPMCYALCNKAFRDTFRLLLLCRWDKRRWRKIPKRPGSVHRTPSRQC
Method: CHO cells expressing human M1 muscarinic receptors were cultured at 37° C. in a 5% CO2 atmosphere in F12 medium supplemented with 5% fetal bovine serum, 100 units/mL penicillin, and 100 μg/mL streptomycin.
(§1) Measurement of [^3H]AA release was performed. Stably transfected CHO-hM1 or CHO-hM3 cells were seeded on 24-well plates (Greiner Bio-One GmbH, Frickenhausen, Germany) at a density of 5.0×10^4 cells/well in 0.5 ml of F-12 medium. Cells were incubated until they attached (approximately 3 h), followed by the addition of [^3H]AA to a final concentration of 0.05 μCi of [^3H]AA per well. The cells were then grown for 16 to 20 h before the assay was performed. [^3H]AA release was measured in Eagle's basal medium with 20 mM HEPES and 2 mg/ml fatty acid-free bovine serum albumin (EM-BSA). Cells were rinsed twice with EM-BSA, followed by the addition of EM-BSA media containing experimental agents and incubated for 1 h at 37° C. The assay was terminated by aspiration of the media, and the amount of [^3H]AA released was determined by liquid scintillation counting (Beckman-Coulter LS6500).
For some assays, pretreatment with phenoxybenzamine (POB) was employed, as indicated, to reduce the number of available receptors per cell. Stock POB was made up at 10 mM in ethanol and stored at −20° C. Each well was pretreated with 0.5 ml of the appropriate concentration in PBS with 1 mM CaCl2 and 1 mM MgCl2 (PBS++) for 30 min at 37° C., followed by 5 washes with PBS++. After pretreatment, the normal protocol was followed as above.
(§2) Tabulated [^3H]AA release data are represented as a fraction of maximal release in the presence of 100 μM ACh or as the fraction of release elicited by the appropriate concentration of ACh alone, as indicated dose-response curves were normalized to the maximal response of ACh without allosteric ligand. Some response curves were analyzed using the empirical four-parameter equation: […]
Disintegration per minute (DPM) values for a single compound were obtained in triplicate, and each compound was evaluated on three separate 24-well plates. The mean values for each condition from each of the three 24-well plates were used for the statistical analysis. The baseline mean was subtracted from each value, then normalized to the mean response produced by 100 μM ACh (set at 1.0). Statistical analyses were completed on the normalized values via one-way repeated measures ANOVA with Tukey's post hoc test. Statistically significant differences are noted as follows: *, p<0.05; **, p<0.01; ***, p<0.001.

[2] = target: T1, M1 muscarinic receptors expressed in CHO cells; assay: Full ACh dose-response curves of [3H]AA release fitted to the allosteric operational model; assay type: cell-based; conditions: for Intrinsic Efficacy-B, τB / Activation cooperativity, A-B, β / Binding cooperativity, A-B, α: allosteric operational model; for Intrinsic Efficacy-B, τB: Em set to 2.0; for Activation cooperativity, A-B, β / Binding cooperativity, A-B, α: with ACh; for Effect on ACh potency and efficacy in full ACh dose-response curves (in words): modulator 10 μM
Method: as §1, §2
where X is the log of the concentration of the ligand used, Y is the amount of response, C50 is the concentration of the ligand that produces 50% of the maximal effect, Top and Bottom are the top and bottom plateaus of the curve, respectively, and n is related to the Hill slope for the curve. In some cases, families of response curves were analyzed according to the allosteric operational model:
where EM is the maximal response; A is the concentration of ACh; B is the concentration of the allosteric ligand; τA and τB represent the intrinsic efficacies of A and B, respectively; KA and KB are the equilibrium dissociation constants of A and B, respectively; and α and β represent the cooperativities between A and B in terms of binding and activation, respectively. Curve-fitting was carried out with GraphPad Prism, version 5.0 or 6.0 (San Diego CA).

[3] = test system: wild-type zebrafish larvae; assay: Maximum tolerated concentration (MTC) determination in zebrafish larvae; assay type: in vivo, Danio rerio; conditions: for Maximum Tolerated Concentration: after 24-hour exposure, Table 3
Method: Determination of maximum tolerated concentration was completed by placing 5 days post fertilization (dpf) wild-type zebrafish larvae in a 24 well plate at 6 fish per well, and one compound concentration per well. […] Death was determined by the absence of heartbeat. Additional endpoints were used to assess toxicity at non-lethal concentrations such as startle capacity (poke stimulus), abnormalities in swimming behavior (loss of dorsoventral balance), and gross morphological deformities (bent body). […] The MTC determination was used to select three doses of each compound (low, medium, high dose) to be used in behavioral assays.

[4] = test system: wild-type zebrafish larvae; assay: General locomotor assay in zebrafish larvae (locomotor activity, repetitive behaviors); assay type: in vivo, Danio rerio; conditions: for Effect on locomotor activity, angular velocity and turn angle (in words): spontaneous swimming period
Method: Five days post fertilization (dpf) zebrafish larvae were exposed to a range of nonlethal concentrations of the compounds in a 24-well plate with appropriate controls. The movement of each larval zebrafish was monitored with the Noldus behavior recording system (Noldus Information Technology, Leesburg VA) and quantified using EthoVision® XT 15 software (Noldus Information Technology, Leesburg VA). The plate was immediately placed in the incubator for a 30-minute exposure period. After 30 minutes, the plate was transferred to the Noldus system and swimming behavior was recorded in 100% light for 30 minutes to measure spontaneous swimming behavior. The light was switched off for 10 minutes (dark period) and then switched on for 10 minutes (light period), which was then repeated for two additional cycles. In total, the larvae were exposed to three cycles of alternating 10-minute dark and light periods (100% darkness-to-100% light). […]
All data for exposure and the behavioral end points were analyzed by one-way ANOVA (factor: drug conc) followed by a Dunnett's multiple comparisons test for post hoc significance between drug concentration and control group. Statistically significant differences are noted as follows: *, p<0.05; **, p<0.01; ***, p<0.001.

[5] = best-fit parameter, read-out: Affinity-B, KB (converted)
[6] = Table 3, test concentration not given, N = 12

Row | SMILES | Ratio of response of ACh with modulator to response of ACh alone, 0.1 μM ACh [1] | Ratio of response of ACh with modulator to response of ACh alone, 100 μM ACh [1] | Stimulation of [3H]AA release, No ACh (fraction of stimulation above the control) [1] | Modulation of ACh activity (in words) [1] | Intrinsic agonist activity (in words) [1] | Intrinsic Efficacy-B, τB ([2]; best-fit parameter) | Activation cooperativity, A-B, β ([2]; best-fit parameter) | Binding cooperativity, A-B, α ([2]; best-fit parameter) | Kb [2, 5] [nM] | Effect on ACh potency and efficacy in full ACh dose-response curves (in words) [2] | Maximum Tolerated Concentration [3] [µM] | Effect on locomotor activity, angular velocity and turn angle (in words) [4] | Affinity-B, KB ([2]; best-fit parameter, values given are logarithms (cf. logKA in footnote)) | Kb ([2]; read-out: affinity for M1 muscarinic receptors (KB)) [nM] | Signs of toxicity (in words) ([3]; concentrations up to 30 μM, the highest concentration tested) | Concentration with significant effects on locomotor activity and repetitive behaviors ([4]; compared with BQCA) [µM] | Angular Velocity [4, 6] | Total Distance Moved [4, 6] | Variance of Turn Angle [4, 6]
1 | CCN(CC)CCOc1ccc(CN2C(=O)C(=O)c3ccccc32)cc1 [Compound 7, 1-(4-(2-(diethylamino)ethoxy)benzyl)indoline-2,3-dione] | 0.08 ± 0.02 | 1.11 ± 0.06 | 0.02 ± 0.01 | primarily decreased potency and slightly enhanced the efficacy of ACh activity | lacked intrinsic activity at the 10 μM concentration | 0.0317 ± 0.0205 | 0.991 ± 0.120 | 0.180 ± 0.0855 | 631 | decreased ACh potency with little impact on ACh efficacy | 10 | did not significantly alter locomotor activity, angular velocity, and turn angle | – | – | – | – | – | – | –
2 | COc1c(I)cc(CN2C(=O)C(=O)c3ccccc32)cc1I [Compound 8a, 1-(3,5-diiodo-4-methoxybenzyl)indoline-2,3-dione] | 2.64 ± 0.10 | 1.62 ± 0.06 | 0.24 ± 0.04 | significant enhancement of ACh activity | lacked intrinsic activity at the 10 μM concentration | 0.174 ± 0.0289 | 3.26 ± 0.431 | 0.689 ± 0.241 | – | dramatically enhanced ACh efficacy | 30 | – | −6.26 ± 0.152 | 589 | did not produce any signs of toxicity | 1 | – | – | –
3 | COc1c(Br)cc(CN2C(=O)C(=O)c3ccccc32)cc1Br [Compound 8c, 1-(3,5-dibromo-4-methoxybenzyl)indoline-2,3-dione] | 2.15 ± 0.05 | 1.58 ± 0.01 | 0.23 ± 0.00 | – | – | 0.328 ± 0.0555 | 3.89 ± 0.610 | 0.980 ± 0.388 | 2950 | dramatically enhanced ACh efficacy | 30 | – | – | – | – | – | – | – | –
4 | COc1cccc(CN2C(=O)C(=O)c3ccccc32)c1 [Compound 8j, 1-(3-methoxybenzyl)indoline-2,3-dione] | 1.06 ± 0.15 | 0.96 ± 0.10 | 0.02 ± 0.02 | – | – | – | – | – | – | enhances ACh potency | – | significantly decreased locomotor activity and increased angular velocity and absolute turn angle | – | – | – | – | – | – | –
5 | CCN(CC)CCOc1c(Br)cc(CN2C(=O)C(=O)c3ccccc32)cc1Br [Compound 8l, 1-(3,5-dibromo-4-(2-(diethylamino)ethoxy)benzyl)indoline-2,3-dione hydrochloride] | 0.19 ± 0.06 | 0.87 ± 0.06 | 0.04 ± 0.00 | results only in a decrease in ACh activity | – | – | – | – | – | decreased ACh potency with little impact on ACh efficacy | 10 | – | – | – | – | – | 184.7 ± 17.0*** % of control | 33.5 ± 4.4** % of control | 166.1 ± 12.5*** % of control
